Reference: patent US5032514A, “Metabolic pathway engineering to increase production of ascorbic acid intermediates” (Genentech, Inc., priority 1988, dated 1991)

How the values were obtained:
[1] = tested on: 2-ketoaldonate reductase [2KR(B)]; test: induction of 2-keto reductase activity by carbohydrates in LB media; assay type: cell-based, E. herbicola 21998tkrAΔ3; conditions: compound as inducer in LB media
Text: The fact that idonate was still produced in the tkrA^- mutant led to the discovery of a second 2-ketoaldonate reductase [2KR(B)], encoded by an inducible tkrB gene. This protein can be purified from the tkrAΔ3 strain and the gene has been cloned (see below). Evidence that 2KR(A) and 2KR(B) are in fact different enzymes is based on observed differences in protein sequence, molecular weight on SDS gels, subunit composition, migration on native gels, kinetic parameters, and gene sequence. 2KR(B) activity is inducible in LB media by a variety of carbohydrates which are listed on Table 1. […] 2-keto reductase activity is found widely elsewhere in nature. We have also identified 2-keto aldonate reductase activity in both E. coli MM294 and Corynebacterium sp. ATCC 31090, neither of which is known to be ketogenic nor produce 2-KLG as a natural product.

[2] = tested on: 5-KDG reductase; test: induction of 5-keto reductase activity by carbohydrates in LB media; assay type: cell-based, E. herbicola 21998tkrAΔ3; conditions: compound as inducer in LB media
[3] = biological target: idonate dehydrogenase; test: membrane bound idonate dehydrogenase assay (crude membrane fraction)
[4] = tested on: E. herbicola; test: growth on sole carbon source in minimal media; assay type: cell-based
Method: Although a large number of potential metabolic routes from glucose exist, IA is likely produced from either 2-KLG or 5-keto-D-gluconate (5-KDG) catalyzed by a stereospecific pyridine nucleotide-linked reductase. Evidence for both the 5-KDG route in Fusarium species (Takagi, Agric. Biol. Chem. 26:719 [1962]) and the 2-KLG route in a variety of microorganisms has been observed (Makeover et al., supra). Shake flask incubations of whole cells of E. herbicola at 11 OD550 containing 12 g/1 of either 2-KLG or 5-KDG were carried out. Approximately 4 g/1 of IA was produced in flasks containing 2-KLG in 40 hours. The total IA and 2-KLG concentration remained constant throughout the bioconversion. […] Furthermore, E. herbicola was grown using either 5-KDG, G, GA, 2-KDG, or 2,5-DKG as the sole carbon source in minimal media. […] Thus the IA produced in E. herbicola into which an expression vector encoding 2,5-DKG reductase has been transferred is derived from 2-KLG catabolism.

[5] = tested on: tac promoters; test: modulation of expression level by sequential increases in IPTG; assay type: cell-based, Erwinia herbicola; conditions: for 2-KLG + IA/DKG: fractional weight basis relative to 2,5-DKG
Method: Additional experiments were carried out modulating the expression level by sequential increases in IPTG to induce the tac promoters.
In the table below, IPTG is the concentration of isopropylthio-β-galactoside added to the culture medium. Enzyme activity is the sum of the activities of 2,5-DKG reductase and 2-keto aldonate reductase per mg of protein (measured using the Bradford assay, supra). 2-KLG is measured on gram per gram dry cell weight per hour. Finally, the 2-KLG and idonate is measured on a fractional weight basis relative to 2,5-DKG.

[6] = biological target: gluconate dehydrogenase; test: membrane bound gluconate dehydrogenase assay (crude membrane fraction); conditions: read-out: Ki, competitive inhibition of gluconate dehydrogenase

| Compound | 2 KR Spec. Act. [1] | 5 KR Spec. Act. [2] | also measured |
| --- | --- | --- | --- |
| OCC(O)CO [D-glycerol] | 0.024 µmol/min/mg | 0.035 µmol/min/mg |  |
| O=C(O)C(=O)[C@@H](O)[C@H](O)[C@@H](O)CO [2-KLG, 2-keto-L-gulonic acid] | 0.014 µmol/min/mg | 0.061 µmol/min/mg | Ki ([3]; read-out: Ki, competitive inhibition of idonate dehydrogenase, crude membrane fraction): 13 mM; growth using compound as the sole carbon source [4]: did not grow |
| O=C(CO)[C@@H](O)[C@H](O)[C@H](O)CO [D-fructose] | 0.028 µmol/min/mg | 0.032 µmol/min/mg |  |
| CC(C)S[C@@H]1O[C@H](CO)[C@H](O)[C@H](O)[C@H]1O [IPTG, isopropylthio-β-galactoside] |  |  | 2-KLG Prod. Rate ([5]; [IPTG] 0.001 mM): 0.000 g/g-DCW-Hr; Enzyme Activity (sum of 2,5-DKG reductase and 2-keto aldonate reductase) ([5]; [IPTG] 0.001 mM): 0.029 umole/mg-P-min; 2-KLG + IA/DKG ([5]; [IPTG] 0.001 mM): 0.000; 2-KLG Prod. Rate ([5]; [IPTG] 0.005 mM): 0.004 g/g-DCW-Hr; Enzyme Activity (sum of 2,5-DKG reductase and 2-keto aldonate reductase) ([5]; [IPTG] 0.005 mM): 0.051 umole/mg-P-min; 2-KLG + IA/DKG ([5]; [IPTG] 0.005 mM): 0.025; 2-KLG Prod. Rate ([5]; [IPTG] 0.050 mM): 0.062 g/g-DCW-Hr; Enzyme Activity (sum of 2,5-DKG reductase and 2-keto aldonate reductase) ([5]; [IPTG] 0.050 mM): 0.100 umole/mg-P-min; 2-KLG + IA/DKG ([5]; [IPTG] 0.050 mM): 0.350; 2-KLG Prod. Rate ([5]; [IPTG] 0.500 mM): 0.126 g/g-DCW-Hr; Enzyme Activity (sum of 2,5-DKG reductase and 2-keto aldonate reductase) ([5]; [IPTG] 0.500 mM): 0.140 umole/mg-P-min; 2-KLG + IA/DKG ([5]; [IPTG] 0.500 mM): 0.530 |
| O=C[C@H](O)[C@@H](O)[C@H](O)[C@H](O)CO [D-glucose] | 0.167 µmol/min/mg | 0.27 µmol/min/mg |  |
| OC[C@@H](O)[C@@H](O)[C@H](O)[C@H](O)CO [D-mannitol] | 0.027 µmol/min/mg | 0.032 µmol/min/mg |  |
| O=C(O)C(=O)[C@@H](O)[C@H](O)C(=O)CO [2,5-DKG, 2,5-diketo-D-gluconic acid] | 0.122 µmol/min/mg | 0.103 µmol/min/mg |  |
| O=C(CO)[C@@H](O)[C@H](O)[C@@H](O)C(=O)O [5-KDG, 5-keto-D-gluconate] | 0.119 µmol/min/mg | 0.105 µmol/min/mg |  |
| O=C(O)[C@H](O)[C@@H](O)[C@H](O)[C@@H](O)CO [IA, L-idonic acid] |  |  | Km ([3]; read-out: apparent Km, idonate dehydrogenase activity, pH 6.0, 25° C.): 20 mM; growth using compound as the sole carbon source [4]: did not grow |
| O=C(O)C(=O)[C@@H](O)[C@H](O)[C@H](O)CO [2-KDG, 2-keto-D-gluconate] | 0.045 µmol/min/mg | 0.143 µmol/min/mg | inhibition of idonate dehydrogenase ([3]; crude membrane fraction): but not idonate dehydrogenase; Ki [6]: > 10 mM |
| O=C(O)[C@H](O)[C@@H](O)[C@H](O)[C@H](O)CO [GA, D-gluconate] | 0.020 µmol/min/mg | 0.144 µmol/min/mg |  |
